Assay results taken from patent publication EP0497921B1, “METHOD FOR INHIBITING ENZYMATIC SYNTHESIS OF NUCLEIC ACIDS USING ISOPSORALENS” (ISAACS, Stephen T., priority 1989, dated 1991).

Columns and labels:
HIV 115-mer [1] = test: Effect of unirradiated isopsoralen on PCR amplification; format: biochemical; settings: for Counts (CPM): unirradiated, 30 cycles, 42200 without AMDMIP
Protocol: To systematically evaluate the effect of the presence of increasing concentrations of isopsoralen on PCR, AMDMIP (0, 100, 200, 400 µg/ml) was added to 10^7 copies of HIV 115-mer as template. PCR was then carried out for 30 cycles in the presence of α-^32P-dCTP. The PCR product was run on denaturing polyacrylamide gel and autoradiographed. The bands were thereafter cut and counted.

HIV 115-mer [2] = test: PCR sterilization with pre-irradiated compound (photoproduct) added to PCR product; format: biochemical
Protocol: AMDMIP photoproduct was made by irradiating AMDMIP (using the CE-III device) in 1 x Taq buffer (50 mM KCL, 2.5 mM MgCl2, 10 mM Tris, pH 8.5, 200 µg/ml gelatin) in a separate vessel for 15 minutes at room temperature (RT). Aliquots of AMDMIP photoproduct and the unirradiated compound were added (by pipetting) at 50, 100, 200 and 300 µg/ml to 1 µl aliquots of a 10^6 dilution of PCR product copies. PCR product was provided by a) preparing template, b) providing template, c) providing PCR reagents, d) providing polymerase, e) mixing PCR reagents, template, and polymerase to initiate PCR, f) cycling to synthesize PCR product. Step a): Template Preparation. The templates were derived from actual patient samples. Ficoll-Hypaque separated peripheral blood mononuclear cells (PBMCs) are prepared from individuals enrolled in a longitudinal AIDS study. Approximately 1 X 10^6 cells are added to 10 ml of RPMI containing 10% fetal calf serum. The cells are pelleted by centrifugation at 200 x g for 5 minutes and washed twice with 10 ml PBS. […]
Again, to evaluate the efficacy of this method of sterilization, a subsequent polymerase chain reaction was carried out for 30 cycles in the presence of α-^32P-dCTP. PCR product was then quantitated by running gels (see above), cutting the bands (detected by autoradiography) and counting the bands on a commercial scintillation counter. […]

human placental DNA = test: PCR amplification with unirradiated AMDMIP and DMSO co-solvent; format: biochemical; settings: for CPM of product bands: AMDMIP 200 µg/ml unirradiated
Protocol: In this example, the effect of DMSO on PCR amplification in the presence of high concentrations of sterilizing compound (AMDMIP) was investigated. Samples were prepared for PCR which contained 1 µg of human placental DNA either with or without (unirradiated) AMDMIP (200 µg/ml). The samples were amplified 30 cycles under standard PCR conditions in the presence of 0%, 1%, 5% or 10% DMSO. The reaction mix contained α-^32P-dCTP. Following amplification, the samples were analyzed by PAGE (data not shown).

[3] = test system: DNA polymerase I from E. coli. B; settings: Piette and Hearst 1983; nick-translating a double-stranded template; cited from earlier work

Molecule	concentrations compatible with the PCR system (HIV 115-mer [1]; HIV 115-mer system)	Counts (CPM) (HIV 115-mer [1]; [AMDMIP] 100 µg/ml)	Counts (CPM) (HIV 115-mer [1]; [AMDMIP] 200 µg/ml)	Counts (CPM) (HIV 115-mer [1]; [AMDMIP] 400 µg/ml)	sterilization of PCR (30 cycles, autoradiography) (HIV 115-mer [2]; unirradiated AMDMIP at the same concentration as the photoproduct)	sterilization of PCR (30 cycles, autoradiography) (HIV 115-mer [2]; unirradiated compound at 50, 100, 200 and 300 µg/ml)	amplification with unirradiated AMDMIP (human placental DNA; 200 µg/ml, no DMSO, 30 cycles)	CPM of product bands (human placental DNA; 0% DMSO) [CPM]	CPM of product bands (human placental DNA; 1% DMSO) [CPM]	CPM of product bands (human placental DNA; 5% DMSO)	CPM of product bands (human placental DNA; 10% DMSO)	inhibition of E. Coli polymerase I by covalently bound monoadducts [3]
4'-Aminomethyl-4,5'-dimethylisopsoralen [AMDMIP]	up to 400 µg/ml	77200	77500	69400	PCR product is clearly evident	no sterilization	virtually no detectable amplification product	2500	2800	86,000 CPM	102,000 CPM	–
Cc1cc2occc2c2oc(=O)ccc12 [MIP, 5-Methylisopsoralen]	–	–	–	–	–	–	–	–	–	–	–	not inhibited
